Measurements reported in patent US11034658B2, “Pyridinyl pyrazoles as modulators of RORγT” (Janssen Pharmaceutica NV, priority 2018, dated 2021).

Columns and labels:
[1] = molecular target: human RORγt ligand binding domain (RORγt LBD) (Homo sapiens (Human), UniProt P51449); assay: RORγt ThermoFluor assay
[2] = molecular target: full-length human RORγt (GAL4-DBD-RORγt fusion) in HEK293T cells (Homo sapiens (Human), UniProt P51449); assay: RORγt (full-length human) reporter assay, conditions A or B; assay type: cell-based; conditions: for IC50: HEK293T cells, read-out: RORγt (FL) Reporter Assay A or B, IC50; for inhibition at 3 µM / inhibition at 1 µM / inhibition at 6 µM / inhibition at 2 µM: HEK-293T; for inhibition at 3 µM: 3 μM compound concentration (footnote *); for inhibition at 3 µM / inhibition at 1 µM / inhibition at 2 µM: read-out: RORγt (FL) Reporter Assay A or B, % inhibition; for inhibition at 1 µM: 1 μM compound concentration (footnote ***); for inhibition at 6 µM: 6 μM compound, read-out: RORγt (FL) Reporter Assay A or B, % inhibition @ 6 μM; for inhibition at 2 µM: 2 μM compound concentration
Method in brief: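 HEK293T cells expressing GAL4-DBD-RORγt fusion (96- or 384-well formats, DMEM/10% FBS) exposed to compound overnight (16–20 h). Firefly luciferase normalized to DMSO and saturating reference compound, then to Renilla; IC50 from dose curve, % inhibition versus DMSO.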

Chain of human RORγt ligand binding domain (RORγt LBD) (P51449 other isoform, or with tags, fused parts or gaps): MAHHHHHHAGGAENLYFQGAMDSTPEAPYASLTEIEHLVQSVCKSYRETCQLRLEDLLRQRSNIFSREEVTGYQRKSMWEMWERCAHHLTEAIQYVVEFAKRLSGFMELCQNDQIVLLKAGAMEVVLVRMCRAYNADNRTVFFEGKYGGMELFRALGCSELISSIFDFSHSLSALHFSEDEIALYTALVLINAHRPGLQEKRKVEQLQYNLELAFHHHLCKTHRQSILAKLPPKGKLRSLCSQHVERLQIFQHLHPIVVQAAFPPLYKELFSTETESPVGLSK
Chain of full-length human RORγt (GAL4-DBD-RORγt fusion) in HEK293T cells (P51449 other isoform, or with tags, fused parts or gaps): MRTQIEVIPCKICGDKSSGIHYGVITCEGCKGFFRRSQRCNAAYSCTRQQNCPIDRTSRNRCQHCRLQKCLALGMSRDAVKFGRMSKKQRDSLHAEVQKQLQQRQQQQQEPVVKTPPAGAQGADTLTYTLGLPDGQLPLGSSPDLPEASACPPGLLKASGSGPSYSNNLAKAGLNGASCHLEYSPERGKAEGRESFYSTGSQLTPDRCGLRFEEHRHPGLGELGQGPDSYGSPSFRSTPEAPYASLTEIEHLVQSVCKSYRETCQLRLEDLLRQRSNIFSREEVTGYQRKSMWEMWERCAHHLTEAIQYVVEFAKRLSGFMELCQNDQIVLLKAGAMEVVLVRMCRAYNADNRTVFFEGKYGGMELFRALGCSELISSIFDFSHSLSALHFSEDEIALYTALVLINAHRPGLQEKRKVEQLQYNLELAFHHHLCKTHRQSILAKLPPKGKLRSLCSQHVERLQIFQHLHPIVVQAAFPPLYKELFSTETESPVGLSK

Compound: CCn1nc(C(=O)NC[C@]2(O)CC[C@@H](S(C)(=O)=O)CC2)c(Cl)c1-c1cnc(CCCC(F)(F)F)cc1OC(F)F [Example 33, 4-Chloro-5-(4-(difluoromethoxy)-6-(4,4,4-trifluorobutyl)pyridin-3-yl)-1-ethyl-N-(((1s,4s)-1-hydroxy-4-(methylsulfonyl)cyclohexyl)methyl)-1H-pyrazole-3-carboxamide]
- Kd [1]: 62 nM
- IC50 [2]: 1100 nM
- inhibition at 3 µM [2]: 66%

Compound: CCn1nc(C(=O)NC[C@H]2CC[C@H](S(C)(=O)=O)CC2)c(C)c1-c1cnc(CCCC(F)(F)F)cc1OC(F)F [Example 34, 5-(4-(Difluoromethoxy)-6-(4,4,4-trifluorobutyl)pyridin-3-yl)-1-ethyl-4-methyl-N-(((1r,4r)-4-(methylsulfonyl)cyclohexyl)methyl)-1H-pyrazole-3-carboxamide]
- Kd [1]: 34 nM
- IC50 [2]: 58 nM
- inhibition at 1 µM [2]: 92%

Compound: CCn1nc(C(=O)NC[C@]2(O)CC[C@@H](S(C)(=O)=O)CC2)c(C)c1-c1cnc(CCCC(F)(F)F)cc1OC(F)F [Example 35, 5-(4-(Difluoromethoxy)-6-(4,4,4-trifluorobutyl)pyridin-3-yl)-1-ethyl-N-(((1s,4s)-1-hydroxy-4-(methylsulfonyl)cyclohexyl)methyl)-4-methyl-1H-pyrazole-3-carboxamide]
- Kd [1]: 100 nM
- IC50 [2]: 63 nM
- inhibition at 1 µM [2]: 76%

Compound: CCn1nc(C(=O)NC[C@]2(O)CC[C@@H](S(C)(=O)=O)CC2)c(Cl)c1-c1cnc(OCC(C)(C)C(F)(F)F)cc1OC [Example 36, 4-Chloro-1-ethyl-N-(((1s,4s)-1-hydroxy-4-(methylsulfonyl)cyclohexyl)methyl)-5-(4-methoxy-6-(3,3,3-trifluoro-2,2-dimethylpropoxy)pyridin-3-yl)-1H-pyrazole-3-carboxamide]
- Kd [1]: 20 nM
- IC50 [2]: 33 nM
- inhibition at 3 µM [2]: 104%

Compound: CCn1nc(C(=O)NC[C@]2(O)CC[C@@H](S(C)(=O)=O)CC2)c(Cl)c1-c1cnc(CC(C)(C)C(F)F)cc1OC(F)F [Example 38, 4-Chloro-5-(6-(3,3-difluoro-2,2-dimethylpropyl)-4-(difluoromethoxy)pyridin-3-yl)-1-ethyl-N-(((1s,4s)-1-hydroxy-4-(methylsulfonyl)cyclohexyl)methyl)-1H-pyrazole-3-carboxamide]
- Kd [1]: 15 nM
- IC50 [2]: 220 nM
- inhibition at 3 µM [2]: 88%

Compound: CCn1nc(C(=O)NC[C@H]2CC[C@H](S(C)(=O)=O)CC2)c(C)c1-c1cnc(CC(C)(C)C(F)F)cc1OC(F)F [Example 41, 5-(6-(3,3-Difluoro-2,2-dimethylpropyl)-4-(difluoromethoxy)pyridin-3-yl)-1-ethyl-4-methyl-N-(((1r,4r)-4-(methylsulfonyl)cyclohexyl)methyl)-1H-pyrazole-3-carboxamide]
- Kd [1]: 6.9 nM
- IC50 [2]: 45 nM
- inhibition at 3 µM [2]: 102%

Compound: CCn1nc(C(=O)NC[C@]2(O)CC[C@@H](S(C)(=O)=O)CC2)c(C)c1-c1cnc(CC(C)(C)C(F)F)cc1OC(F)F [Example 42, 5-(6-(3,3-Difluoro-2,2-dimethylpropyl)-4-(difluoromethoxy)pyridin-3-yl)-1-ethyl-N-(((1s,4s)-1-hydroxy-4-(methylsulfonyl)cyclohexyl)methyl)-4-methyl-1H-pyrazole-3-carboxamide]
- Kd [1]: 35 nM
- IC50 [2]: 430 nM
- inhibition at 3 µM [2]: 95%

Compound: CCn1nc(C(=O)NC[C@H]2CC[C@H](S(C)(=O)=O)CC2)c(Cl)c1-c1ccc(CC(C)(C)C(F)(F)F)nc1OC(F)F [Example 45, 4-Chloro-5-(2-(difluoromethoxy)-6-(3,3,3-trifluoro-2,2-dimethylpropyl)pyridin-3-yl)-1-ethyl-N-(((1r,4r)-4-(methylsulfonyl)cyclohexyl)methyl)-1H-pyrazole-3-carboxamide]
- Kd [1]: 0.35 nM
- IC50 [2]: 11 nM
- inhibition at 3 µM [2]: 86%

Compound: CCn1nc(C(=O)NC[C@]2(O)CC[C@@H](S(C)(=O)=O)CC2)c(Cl)c1-c1ccc(CC(C)(C)C(F)(F)F)nc1OC(F)F [Example 46, 4-Chloro-5-(2-(difluoromethoxy)-6-(3,3,3-trifluoro-2,2-dimethylpropyl)pyridin-3-yl)-1-ethyl-N-(((1s,4s)-1-hydroxy-4-(methylsulfonyl)cyclohexyl)methyl)-1H-pyrazole-3-carboxamide]
- Kd [1]: 0.66 nM
- IC50 [2]: 89 nM
- inhibition at 3 µM [2]: 97%

Compound: CCn1nc(C(=O)NC[C@H]2CC[C@H](S(C)(=O)=O)CC2)c(C)c1-c1ccc(CC(C)(C)C(F)(F)F)nc1OC(F)F [Example 49, 5-(2-(Difluoromethoxy)-6-(3,3,3-trifluoro-2,2-dimethylpropyl)pyridin-3-yl)-1-ethyl-4-methyl-N-(((1r,4r)-4-(methylsulfonyl)cyclohexyl)methyl)-1H-pyrazole-3-carboxamide]
- Kd [1]: 0.28 nM
- IC50 [2]: 6.4 nM
- inhibition at 3 µM [2]: 106%

Compound: CCn1nc(C(=O)NC[C@]2(O)CC[C@@H](S(C)(=O)=O)CC2)c(C)c1-c1ccc(CC(C)(C)C(F)(F)F)nc1OC(F)F [Example 50, 5-(2-(Difluoromethoxy)-6-(3,3,3-trifluoro-2,2-dimethylpropyl)pyridin-3-yl)-1-ethyl-N-(((1s,4s)-1-hydroxy-4-(methylsulfonyl)cyclohexyl)methyl)-4-methyl-1H-pyrazole-3-carboxamide]
- Kd [1]: 1.3 nM
- IC50 [2]: 20 nM
- inhibition at 1 µM [2]: 100%

Compound: CCn1nc(C(=O)NC[C@H]2CC[C@H](S(C)(=O)=O)CC2)c(Cl)c1-c1ncc(CC(C)(C)C(F)(F)F)cc1OC(F)F [Example 52, 4-Chloro-5-(3-(difluoromethoxy)-5-(3,3,3-trifluoro-2,2-dimethylpropyl)pyridin-2-yl)-1-ethyl-N-(((1r,4r)-4-(methylsulfonyl)cyclohexyl)methyl)-1H-pyrazole-3-carboxamide]
- Kd [1]: 4.7 nM
- IC50 [2]: 58 nM
- inhibition at 3 µM [2]: 85%

Compound: CCn1nc(C(=O)NC[C@]2(O)CC[C@@H](S(C)(=O)=O)CC2)c(Cl)c1-c1ncc(CC(C)(C)C(F)(F)F)cc1OC(F)F [Example 53, 4-Chloro-5-(3-(difluoromethoxy)-5-(3,3,3-trifluoro-2,2-dimethylpropyl)pyridin-2-yl)-1-ethyl-N-(((1s,4s)-1-hydroxy-4-(methylsulfonyl)cyclohexyl)methyl)-1H-pyrazole-3-carboxamide]
- Kd [1]: 18 nM
- IC50 [2]: 250 nM
- inhibition at 3 µM [2]: 83%

Compound: CCn1nc(C(=O)NC[C@H]2CC[C@H](S(C)(=O)=O)CC2)c(Cl)c1-c1cnc(CC(C)(C)C(F)(F)F)cc1C(C)(F)F [Example 54, 4-Chloro-5-(4-(1,1-difluoroethyl)-6-(3,3,3-trifluoro-2,2-dimethylpropyl)pyridin-3-yl)-1-ethyl-N-(((1r,4r)-4-(methylsulfonyl)cyclohexyl)methyl)-1H-pyrazole-3-carboxamide]
- Kd [1]: 13 nM
- IC50 [2]: 240 nM
- inhibition at 3 µM [2]: 42%

Compound: CCc1cc(CC(C)(C)C(F)(F)F)ncc1-c1c(Cl)c(C(=O)NC[C@]2(O)CC[C@@H](S(C)(=O)=O)CC2)nn1CC [Example 55, 4-Chloro-1-ethyl-5-(4-ethyl-6-(3,3,3-trifluoro-2,2-dimethylpropyl)pyridin-3-yl)-N-(((1s,4s)-1-hydroxy-4-(methylsulfonyl)cyclohexyl)methyl)-1H-pyrazole-3-carboxamide]
- Kd [1]: 30 nM
- IC50 [2]: 280 nM
- inhibition at 3 µM [2]: 78%

Compound: CCc1cc(CCC(C)(C)C)ncc1-c1c(Cl)c(C(=O)NC[C@]2(O)CC[C@@H](S(C)(=O)=O)CC2)nn1CC [Example 59, 4-Chloro-5-(6-(3,3-dimethylbutyl)-4-ethylpyridin-3-yl)-1-ethyl-N-(((1s,4s)-1-hydroxy-4-(methylsulfonyl)cyclohexyl)methyl)-1H-pyrazole-3-carboxamide]
- Kd [1]: 35 nM
- IC50 [2]: 210 nM
- inhibition at 3 µM [2]: 82%

Compound: CCn1nc(C(=O)NC[C@H]2CC[C@H](S(C)(=O)=O)CC2)c(Cl)c1-c1cnc(CC(C)C(F)(F)F)cc1OC (stereo partly drawn) [Example 60, 4-Chloro-1-ethyl-5-(4-methoxy-6-(3,3,3-trifluoro-2-methylpropyl)pyridin-3-yl)-N-(((1r,4r)-4-(methylsulfonyl)cyclohexyl)methyl)-1H-pyrazole-3-carboxamide]
- Kd [1]: 11 nM
- IC50 [2]: 240 nM
- inhibition at 6 µM [2]: 88%

Compound: CCn1nc(C(=O)NC[C@]2(O)CC[C@@H](S(C)(=O)=O)CC2)c(Cl)c1-c1cnc(O[C@H](C)C(F)(F)F)cc1OC [Example 63, 4-Chloro-1-ethyl-N-(((1r,4R)-1-hydroxy-4-(methylsulfonyl)cyclohexyl)methyl)-5-(4-methoxy-6-(((R)-1,1,1-trifluoropropan-2-yl)oxy)pyridin-3-yl)-1H-pyrazole-3-carboxamide]
- Kd [1]: 12 nM
- IC50 [2]: 140 nM
- inhibition at 6 µM [2]: 86%

Compound: CCn1nc(C(=O)NC[C@H]2CC[C@H](S(C)(=O)=O)CC2)c(Cl)c1-c1cnc(O[C@@H](C)C(F)(F)F)cc1OC [Example 64]
- Kd [1]: 15 nM
- IC50 [2]: 280 nM
- inhibition at 2 µM [2]: 39%

Compound: CCn1nc(C(=O)NC[C@H]2CC[C@H](S(C)(=O)=O)CC2)c(Cl)c1-c1cnc(O[C@H](C)C(F)(F)F)cc1OC [Example 65]
- Kd [1]: 12 nM
- IC50 [2]: 41 nM
- inhibition at 2 µM [2]: 75%
